Test system: alpha-fetoprotein (AFP)
Test: Serum AFP levels in tumor-bearing nude mice
Assay type: in vivo, human
Conditions: for level of AFP: 15 mg/kg weekly
Excerpt: Xenotransplanted tumors have been previously shown to be responsive to 5FU chemotherapy as assayed by direct physical measurement of the tumor (Houghton et al., Biochem. Pharmacol., 36, 1285-1289 (1987)), histological changes and biochemical measurements, such as alpha-fetoprotein (AFP) levels (Lemoine et al., Pathol. Biol. (Paris), 47, 903-910 (1999)) and thymidylate synthase levels (Peters et al., J. Clin Oncol., 12, 2035-2042 (1994)). The xenograft tumors in nude mice are a widely used model for tumor studies that allows for direct measurement of the growth of human tumors. Male CD-1 nude mice (6-8 weeks old, 20-22 g in weight) were used for these bioefficacy studies. An injection of 10^8 Hep G2 cells was made subcutaneously into the subcapsular region of each mouse. Mice were observed daily for tumor formation. After tumors emerged, they were measured twice a week in two dimensions with sliding calipers. When the tumors reached a weight of 100 mg in weight as determined by the formula: [(weight, mg)=(length (mm)×width (mm))^2/2], treatment was initiated (Geran et al., Cancer Chemother. Rep., 3, 51-61 (1972)). Initially, mice were treated with 10 mg/kg dose once/week for 8 weeks. Subsequently, separate cohorts of mice were treated with 15 mg/kg weekly for 8 weeks and finally 10 mg/kg twice weekly for 8 weeks. The impact of treatment upon tumor growth was judged by direct measurement as described above. In addition, tumor progression was tracked by serological measurements, such as AFP levels. AFP levels were assayed weekly following each injection. Blood was taken retro-orbitally from each mouse. AFP levels were assayed immunochemically, using kits supplied by Abbott Laboratories (Waukegan, Ill.) and based on the methods of Wang et al. (Cancer Res., 50, 869s-872s (1990)). Measurements of AFP levels were intended to complement direct physical measurement as an indicator of tumor progression. Generally, serum AFP levels behave as if they reflect tumor mass. […]

In the case of `CC(=O)N[C@H]1[C@H](OCCCCCCNC(=O)CC[C@H](NC(=O)CC[C@H](NC(=O)[C@H](Cc2ccc(O)cc2)NC(=O)C2CCC(CN3C(=O)CC(SCCCCCCOP(=O)(O)OC[C@H]4O[C@@H](n5cc(F)c(=O)[nH]c5=O)C[C@@H]4O)C3=O)CC2)C(=O)NCCCCCCO[C@@H]2O[C@H](CO)[C@H](O)[C@H](O)[C@H]2NC(C)=O)C(=O)NCCCCCCO[C@@H]2O[C@H](CO)[C@H](O)[C@H](O)[C@H]2NC(C)=O)O[C@H](CO)[C@H](O)[C@@H]1O` (stereo partly drawn) [po 1-mer, YEE(ahGalNAc)3-SMCC-poFU], the AFP measurements (10 mg/kg twice weekly, week 6) is reported as “below the limits of detection”, the “level of AFP” value (after 3 weeks of treatment) is reported as “less than 200 μg/ml” and the “level of AFP” value (week 8) is reported as “below the level of detection”.
